Assay: Solubility of N-cyanomethyl-4-(trifluoromethyl)nicotinamide in salt solutions (HPLC of filtrate)
Type: physicochemical
Settings: for Amount of N-cyanomethyl-4-(trifluoromethyl)nicotinamide in Salt Solutions After Filtration: about 18 hours at ambient temperature
Protocol: In order to determine the effectiveness of a salt to decrease the solubility of N-cyanomethyl-4-(trifluoromethyl)nicotinamide in aqueous solutions, the following tests were conducted:
A salt solution consisting of two grams of a salt dissolved in ten grams of water was prepared. Fifty milligrams of N-cyanomethyl-4-(trifluoromethyl)nicotinamide was added and the resulting mixture was subjected to sonication until all the N-cyanomethyl-4-(trifluoromethyl)nicotinamide had dissolved. The solutions were allowed to stand at ambient temperature for about 18 hours. Each solution was filtered and the filtrate was analyzed by HPLC to determine the amount of N-cyanomethyl-4-(trifluoromethyl)nicotinamide which remained dissolved in the water. An experiment in which no salt was added was included as a control.

N#CCNC(=O)c1cnccc1C(F)(F)F [N-cyanomethyl-4-(trifluoromethyl)nicotinamide]
Amount of N-cyanomethyl-4-(trifluoromethyl)nicotinamide in Salt Solutions After Filtration (Control, no salt, 50 mg added to 10 g water): 50.0 mg
Amount of N-cyanomethyl-4-(trifluoromethyl)nicotinamide in Salt Solutions After Filtration (Magnesium Sulfate (Anhydrous), 2 g in 10 g water, 50 mg added): 7.0 mg
Amount of N-cyanomethyl-4-(trifluoromethyl)nicotinamide in Salt Solutions After Filtration (Sodium Sulfate, 2 g in 10 g water, 50 mg added): 10.0 mg
Reduction of solubility in an aqueous solution (concentration of 20% magnesium sulfate): over 90%
Reduction of solubility in an aqueous solution (sodium sulfate): 80%
